From patent publication US12391679B2, “Benzamide-substituted bicyclic imidazo- and pyrazolo-fused -pyridine, -pyrimide, and -pyridazine compounds for treatment of inflammatory diseases” (ONCO3R Therapeutics BV, priority 2019, dated 2025)

How the values were obtained:
SIK1 [1] = molecular target: T1, SIK1 (Homo sapiens, UniProt P57059); assay: ADP-Glo kinase assay, SIK1; assay type: biochemical
T1 construct: purchased Carna Biosciences 02-131
Method in brief: (§1)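 Each SIK isoform is incubated with substrate and ATP for 2 h at room temperature, after which residual ATP is depleted and the ADP formed is quantified by luminescence.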

SIK2 [2] = molecular target: T2, SIK2 (Homo sapiens, UniProt Q9H0K1); assay: 33P radioactive kinase assay, SIK2; assay type: biochemical; further: AMARA 5 µM, 10 µM ATP
T2 construct: purchased ThermoFisher Scientific PV4792
Procedure: (§2) The principle of the ^33P radioactive kinase assay consists in measuring the incorporated ^33P into the substrate AMARA peptide when phosphorylated by SIK1, SIK2 or SIK3 using [^33P]-g-ATP, which correlates with kinase activity.
(§3) The test compounds are prepared as a serial dilution of 10 point dose responses with 1/5 dilution steps in 100% DMSO starting from 2 mM highest concentration, diluted 1/20 in water and 5 μL is transferred to the assay plates (Greiner, Cat #651201).
(§4) 1% DMSO and 10 μM staurosporine final concentrations are used as negative and positive controls.
(§5) 11 μL of enzyme-substrate mixture is added on the assay plates. The reactions are started by adding 9 μL ATP mixture, consisting of non-labeled and ^33P-labeled ATP, on the assay plates.
(§6) The reactions are stopped by adding 25 μL phosphoric acid (150 mM) to the reactions.
(§7) The completely terminated kinase reactions are transferred using a harvester on pre-wetted UniFilter-96 plates (UniFilter-96 GF/B, PerkinElmer Inc., Cat #6005177).
(§8) After harvesting the kinase reactions, the filter plates are washed 6 times with phosphoric acid (75 mM). The back of the UniFilter-96 plates are sealed and 40 μL MicroScint-20 (PerkinElmer Inc., Cat #6013621) is added to each well. The top of the plates are sealed with TopSeal-A. Read-out is performed with a TopCount instrument (PerkinElmer Inc.).
(§9) Raw data are generated following the read-out performed on the TopCount, plotted to generate dose response curves to calculate percentage inhibition (PIN) and average IC50 for each SIK homologue which are reported in the table below.

SIK3 [3] = molecular target: T3, SIK3 (Homo sapiens, UniProt Q9Y2K2); assay: ADP-Glo kinase assay, SIK3; assay type: biochemical
T3 construct: purchased SignalChem S12-11G-100
Method in brief: as §1

SIK3 [4] = molecular target: T3, SIK3; assay: 33P radioactive kinase assay, SIK3; assay type: biochemical; settings: 33P radioactive assay; AMARA 7 μM; 15 μM ATP; 80 min; average IC50
Procedure: as §2, §3, §4, §5, §6, §7, §8, §9

SIK2 [5] = molecular target: T2, SIK2; assay: ADP-Glo kinase assay, SIK2; assay type: biochemical
Method in brief: as §1

[6] = test system: LPS-induced TNFα in monocyte-derived macrophages; assay: MdM assay: LPS-triggered TNFα (ELISA); assay type: cell-based, human; settings: Macrophage; human MdM; LPS 200 ng/mL; supernatant after 20 h; inhibition of TNFα; read-out: TNFα EC50
Procedure: This assay evaluates illustrative compounds of the invention for their inhibition of LPS-induced TNFα and LPS triggered IL-10 secretion in monocyte-derived macrophages. PBMCs are isolated from human blood samples (buffycoats). The buffy coat is aseptically transferred into a 50 mL Falcon tube, and diluted 1/2 in PBS. Falcon tubes are filled with 20 mL LymphoprepTM, on top of which 25 mL of the buffy coat is carefully added, tubes are centrifuged for 35 min at 400 g in temperature controlled centrifuge, without brake, at 25° C. PBMCs are aspirated from the white interface layer between sample and LymphoprepTM. PBMCs are washed five times in PBS. […] PBMCs are centrifuged at 300×g for 10 min and resuspended at a density of 1.0*10^7 cells/80 μL Miltenyi buffer (PBS, pH 7.4, 1% FBS, 2 mM EDTA). Starting from this point of the protocol all steps are performed on ice. 20 μL of CD14+ micro-beads are added per 1.0*10^7 cells, the tube is mixed and incubated for 15 min in the fridge at 4° C. Cell suspension volume is adjusted to total volume of 100 mL using Miltenyi buffer, mixed gently and subsequently centrifuged for 10 min at 300×g. Supernatant is discarded and cell pellet is resuspended in 12 mL of Miltenyi buffer. Four LS columns are placed in the MACS Separator (magnet) from Miltenyi Biotec, and are prewet by rinsing with 3 mL of MACS buffer per column. Three mL of cell suspension is added onto the column (max 1*10^8 of labelled cells/column), and columns are subsequently washed 3 times with 3 mL of Miltenyi buffer. The columns are removed from the magnets, and 5 mL of Miltenyi buffer are added to the column to flush out the CD14+ fraction by pushing the plunger into the column. The flushed fractions are collected in a fresh 50 mL Falcon and volume is adjusted to 30 mL using Miltenyi buffer, cells are centrifuged for 10 min at 300×g. The obtained cell pellet is resuspended in 10 mL RPMI w/o FBS, and cell density is determined using a hematologic analyser (Sysmex XS-500i). […] On day 10, MdMs are triggered and compound is added. A compound dilution plate is made in 100% DMSO by 3-fold dilution of 10 mM stock solution. An intermediate dilution plate (10× final concentration) is made by diluting the compound dilution plate […] in RPMI medium. Medium is carefully removed from cell plates using multichannel pipette, and replaced by 80 μL fresh medium. 10 μL of the 10× final concentration compound is added to the cells and incubated for 1 hour at 37° C. before addition of trigger. No trigger conditions/trigger conditions are spiked with equal final DMSO concentrations of 0.2% DMSO. 10 μL of 10×LPS (final conc. 200 ng/mL) solution are added to all wells except for the 'no trigger wells' where 10 μL medium is added. Supernatant is collected after 2 h (IL-10 determination) and after 20 h (TNFα determination) of LPS triggering. […] The plate is then washed once with PBST (PBS+0.05% Tween20) and once with PBS followed by the addition of 100 μL of blocking buffer (1% Bovine Serum Albumin (BSA) -5% Sucrose) and plates are sealed and incubated for at least 4 h at RT. After washing the plate once with PBST and once with PBS, 40 μL of standard or sample are added (TNFα standard curve is prepared using a 1/2 serial dilution starting from 16000 pg/mL; dilutions are made in dilution buffer (PBS+1% BSA)). Plates are washed twice with PBST, and once with PBS, after which 35 μL of the detection antibody is added (final concentration 0.25 μg/mL diluted in dilution buffer) and plates are incubated for at least 2 h at RT. Plates are washed twice with PBST, and once with PBS, where after 35 μL of Strep-HRP conjugate (0.5 μg/mL final concentration diluted in dilution buffer) is added. […] Plates are washed twice with PBST, and once with PBS. Thereafter, 50 μL of luminol substrate is added to each well (prepared according to manufacturer's instructions), and incubated for 5 min at RT protected from light.

SIK1 [7] = molecular target: T1, SIK1; assay: 33P radioactive kinase assay, SIK1; assay type: biochemical
Procedure: as §2, §3, §4, §5, §6, §7, §8, §9

T1 sequence (P57059 whole entry): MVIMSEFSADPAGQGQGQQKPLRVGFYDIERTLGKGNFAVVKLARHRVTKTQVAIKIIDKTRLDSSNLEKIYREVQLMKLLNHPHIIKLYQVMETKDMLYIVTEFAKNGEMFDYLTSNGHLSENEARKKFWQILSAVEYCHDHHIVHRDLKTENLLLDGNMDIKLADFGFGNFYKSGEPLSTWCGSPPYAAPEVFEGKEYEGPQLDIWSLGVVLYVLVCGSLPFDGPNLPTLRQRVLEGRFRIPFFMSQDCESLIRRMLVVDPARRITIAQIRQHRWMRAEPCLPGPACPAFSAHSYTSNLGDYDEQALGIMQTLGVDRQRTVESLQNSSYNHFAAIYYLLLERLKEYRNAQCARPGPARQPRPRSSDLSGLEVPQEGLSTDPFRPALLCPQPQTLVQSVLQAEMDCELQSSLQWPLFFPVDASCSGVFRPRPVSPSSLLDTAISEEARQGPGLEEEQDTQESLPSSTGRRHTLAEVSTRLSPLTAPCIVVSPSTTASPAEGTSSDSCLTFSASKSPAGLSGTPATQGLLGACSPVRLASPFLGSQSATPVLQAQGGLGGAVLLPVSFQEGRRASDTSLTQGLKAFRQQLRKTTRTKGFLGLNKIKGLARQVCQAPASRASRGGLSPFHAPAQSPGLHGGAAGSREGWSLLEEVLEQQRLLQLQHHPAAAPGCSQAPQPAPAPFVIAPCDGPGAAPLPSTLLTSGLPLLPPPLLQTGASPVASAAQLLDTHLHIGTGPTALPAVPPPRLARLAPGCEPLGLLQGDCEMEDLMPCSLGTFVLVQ
T3 sequence (Q9Y2K2 59-365 limits assumed): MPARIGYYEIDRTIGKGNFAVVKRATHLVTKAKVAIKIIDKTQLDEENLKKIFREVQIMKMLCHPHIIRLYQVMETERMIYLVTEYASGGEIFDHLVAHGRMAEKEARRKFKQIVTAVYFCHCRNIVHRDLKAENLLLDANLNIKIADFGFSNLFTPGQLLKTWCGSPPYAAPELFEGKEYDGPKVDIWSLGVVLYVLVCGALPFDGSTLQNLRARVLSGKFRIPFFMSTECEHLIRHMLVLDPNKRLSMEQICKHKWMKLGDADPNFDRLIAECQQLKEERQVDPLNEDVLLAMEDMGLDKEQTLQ
T2 sequence (Q9H0K1 whole entry): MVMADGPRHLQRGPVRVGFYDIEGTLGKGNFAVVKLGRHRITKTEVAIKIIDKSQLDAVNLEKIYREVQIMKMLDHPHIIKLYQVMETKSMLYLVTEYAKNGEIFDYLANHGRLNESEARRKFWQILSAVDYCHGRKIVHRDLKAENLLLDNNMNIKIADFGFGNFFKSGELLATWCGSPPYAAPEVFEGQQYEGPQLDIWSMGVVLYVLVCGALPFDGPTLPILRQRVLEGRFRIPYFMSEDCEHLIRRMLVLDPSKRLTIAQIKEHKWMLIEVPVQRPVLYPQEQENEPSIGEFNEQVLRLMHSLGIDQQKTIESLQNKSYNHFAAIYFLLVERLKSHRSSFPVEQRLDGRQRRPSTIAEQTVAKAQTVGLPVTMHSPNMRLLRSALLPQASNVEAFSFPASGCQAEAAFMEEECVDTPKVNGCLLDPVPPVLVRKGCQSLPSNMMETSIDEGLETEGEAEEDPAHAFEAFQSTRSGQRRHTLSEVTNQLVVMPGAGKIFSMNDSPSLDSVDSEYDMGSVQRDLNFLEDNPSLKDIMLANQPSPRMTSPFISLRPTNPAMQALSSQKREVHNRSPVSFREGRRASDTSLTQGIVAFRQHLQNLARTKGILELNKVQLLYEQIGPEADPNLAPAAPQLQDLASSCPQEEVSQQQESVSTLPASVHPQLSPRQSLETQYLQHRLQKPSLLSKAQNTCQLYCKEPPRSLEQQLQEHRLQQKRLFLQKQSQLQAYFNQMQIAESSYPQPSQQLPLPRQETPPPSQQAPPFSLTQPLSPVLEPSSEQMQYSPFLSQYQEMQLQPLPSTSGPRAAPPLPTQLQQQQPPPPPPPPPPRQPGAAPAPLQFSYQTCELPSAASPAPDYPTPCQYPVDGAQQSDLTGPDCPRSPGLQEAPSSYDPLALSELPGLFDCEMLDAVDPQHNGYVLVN

Row | Structure (SMILES) | IC50 (SIK1 [1]) [nM] | IC50 (SIK2 [2]) [nM] | IC50 (SIK3 [3]) [nM] | IC50 (SIK3 [4]) [nM] | IC50 (SIK2 [5]) [nM] | EC50 [6] [nM] | IC50 (SIK1 [7]) [nM]
1 | COc1cc(-c2cnc3cc(C(C)(C)C#N)ccn23)cc(OC)c1C(=O)NCC(F)(F)F [Cpd 17, 4-[7-(1-cyano-1-methyl-ethyl)imidazo[1,2-a]pyridin-3-yl]-2,6-dimethoxy-N-(2,2,2-trifluoroethyl)benzamide] | > 500 | > 500 | 10 to 100 | 10 to 100 | > 500 | 100 to 1000 | > 500
2 | COc1cc(-c2cnc3cc(C(C)(C)C#N)ccn23)cc2c1C(=O)N(CC(F)(F)F)CC2 [Cpd 25, 2-[3-[8-methoxy-1-oxo-2-(2,2,2-trifluoroethyl)-3,4-dihydroisoquinolin-6-yl]imidazo[1,2-a]pyridin-7-yl]-2-methyl-propanenitrile] | > 500 | > 500 | 10 to 100 | 10 to 100 | > 500 | 1000 to 5000 | > 500
3 | COc1cc(-c2cnc3cc(C4CCN(C(=O)OC(C)(C)C)CC4)ccn23)cc(OC)c1C(=O)NCC(F)(F)F [Cpd 16, tert-butyl 4-[3-[3,5-dimethoxy-4-(2,2,2-trifluoroethylcarbamoyl)phenyl]imidazo[1,2-a]pyridin-7-yl]piperidine-1-carboxylate] |  | 100 to 500 |  | 10 to 100 |  | > 5000 | > 500
4 | CCNC(=O)c1c(OC)cc(-c2cnc3cc(C(C)(C)C#N)ccn23)cc1OC [Cpd 30, 4-[7-(1-cyano-1-methyl-ethyl)imidazo[1,2-a]pyridin-3-yl]-N-ethyl-2,6-dimethoxy-benzamide] | > 500 | > 500 | 10 to 100 | 100 to 500 | > 500 |  | > 500
5 | COc1cc(-c2cnc3cc(C4(C#N)CCC4)ccn23)cc(OC(F)F)c1C(=O)NC1CC1 [Cpd 34, 4-[7-(1-cyanocyclobutyl)imidazo[1,2-a]pyridin-3-yl]-N-cyclopropyl-2-(difluoromethoxy)-6-methoxy-benzamide] | > 500 | > 500 | 0.01 to 10 | 10 to 100 | 100 to 500 | 100 to 1000 | > 500
6 | COc1cc(-n2cnc3cc(C(C)(C)C#N)ccc32)cc(OC)c1C(=O)NC1CC1 [Cpd 11, 4-[5-(1-cyano-1-methyl-ethyl)benzimidazol-1-yl]-N-cyclopropyl-2,6-dimethoxy-benzamide] | > 500 | > 500 | 100 to 500 | > 500 | > 500 |  | > 500
7 | COc1cc(-n2cnc3cc(C(C)(C)C#N)ccc32)cc(OC)c1C(=O)NCC(F)(F)F [Cpd 10, 4-[5-(1-cyano-1-methyl-ethyl)benzimidazol-1-yl]-2,6-dimethoxy-N-(2,2,2-trifluoroethyl)benzamide] | > 500 | > 500 | 100 to 500 | 100 to 500 | > 500 |  | > 500
8 | COc1cc(-c2cnc3cc(C(C)(C)C#N)ccn23)cc(OC)c1C(=O)N1CC(F)(F)C1 [Cpd 18, 2-[3-[4-(3,3-difluoroazetidine-1-carbonyl)-3,5-dimethoxy-phenyl]imidazo[1,2-a]pyridin-7-yl]-2-methyl-propanenitrile] | > 500 | > 500 | 10 to 100 | 10 to 100 | > 500 |  | > 500
9 | COc1cc(-c2cnc3cc(C(C)(C)C#N)ccn23)cc2c1C(=O)NCC2 [Cpd 20, 2-[3-(8-methoxy-1-oxo-3,4-dihydro-2H-isoquinolin-6-yl)imidazo[1,2-a]pyridin-7-yl]-2-methyl-propanenitrile] | > 500 | > 500 | 10 to 100 | 10 to 100 | > 500 | 1000 to 5000 | > 500
10 | COc1cc(-c2cnc3cc(C4CCCN(C)C4)ccn23)cc(OC)c1C(=O)NCC(F)(F)F (stereo not drawn) [Cpd 24, 2,6-dimethoxy-4-[7-(1-methyl-3-piperidyl)imidazo[1,2-a]pyridin-3-yl]-N-(2,2,2-trifluoroethyl)benzamide] | > 500 | 100 to 500 | 10 to 100 | 10 to 100 | 100 to 500 | 1000 to 5000 | > 500
11 | COc1cc(-c2cnc3cc(C(C)(C)C#N)ccn23)cc(OC)c1C(=O)NCC#N [Cpd 32, N-(cyanomethyl)-4-[7-(1-cyano-1-methyl-ethyl)imidazo[1,2-a]pyridin-3-yl]-2,6-dimethoxy-benzamide] | > 500 | > 500 | 10 to 100 | 10 to 100 | > 500 |  | > 500
12 | COc1cc(-c2cnc3cc(C4CCCNC4)ccn23)cc(OC)c1C(=O)NCC(F)(F)F (stereo not drawn) [Cpd 23, 2,6-dimethoxy-4-[7-(3-piperidyl)imidazo[1,2-a]pyridin-3-yl]-N-(2,2,2-trifluoroethyl)benzamide] | > 500 | 100 to 500 | 10 to 100 | 10 to 100 | 100 to 500 |  | > 500
13 | COc1cc(-c2cnc3cc(C4CCN(C)CC4)ccn23)cc(OC)c1C(=O)NCC(F)(F)F [Cpd 22, 2,6-dimethoxy-4-[7-(1-methyl-4-piperidyl)imidazo[1,2-a]pyridin-3-yl]-N-(2,2,2-trifluoroethyl)benzamide] | > 500 | 100 to 500 | 10 to 100 | 10 to 100 | 100 to 500 |  | > 500
14 | COc1cc(-n2cnc3cc(C(C)C#N)ccc32)cc(OC)c1C(=O)NCC(F)(F)F (stereo not drawn) [Cpd 15, 4-[5-(1-cyanoethyl)benzimidazol-1-yl]-2,6-dimethoxy-N-(2,2,2-trifluoroethyl)benzamide] |  | > 500 |  | > 500 |  |  | > 500
